The test system of series [1] is Staphylococcus aureus. Briefly: Bactericidal activity against methicillin-resistant Staphylococcus aureus ATCC 43300 assessed as reduction in bacterial growth. The series is classed as functional.
Series [2] deals with Staphylococcus aureus. Nature of the series: Bactericidal activity against methicillin-resistant Staphylococcus aureus CGMCC 1.12409 assessed as reduction in bacterial growth. The series is classed as functional.
The subject of series [3] is Staphylococcus aureus. Nature of the series: Bactericidal activity against methicillin-resistant Staphylococcus aureus ATCC 33591 assessed as reduction in bacterial growth. The format is functional.
In the next series the test system is A549. Nature of the series: Cytotoxicity against human A549 cells assessed as cell viability upto 40 uM relative to control. The conditions noted are these: up to 40 µM. The format is functional.
The next series deals with HepG2. Nature of the series: Cytotoxicity against human HepG2 cells assessed as cell viability upto 40 uM relative to control. The series is classed as functional. As to conditions: up to 40 µM.
A short description of series [4]: Hemolytic activity against rabbit Red blood cell assessed as hemolysis. The series is classed as toxicity, cell-based, Oryctolagus cuniculus, Erythrocyte. As to conditions: red blood cells.
Series [5] relates to Staphylococcus aureus. Briefly: Antibacterial activity against Staphylococcus aureus CGMCC1.8721 assessed as reduction in bacterial growth at 4 to 8 times MIC measured after 24 hrs by time kill assay. The series is classed as functional, organism-based.
Series [6] has as its system Staphylococcus aureus. Briefly: Antibacterial activity against Staphylococcus aureus CGMCC1.8721 assessed as reduction in bacterial growth in presence of Na+. The series is classed as functional.
Series [7] has as its system Staphylococcus aureus. Nature of the series: Antibacterial activity against Staphylococcus aureus CGMCC1.8721 assessed as reduction in bacterial growth in presence of Ca2+. The series is classed as functional.
Series [8] deals with Staphylococcus aureus. Nature of the series: Antibacterial activity against methicillin-resistant Staphylococcus aureus ATCC 43300 assessed as reduction in bacterial growth in presence of K+. The series is classed as functional.
Series [9] deals with Staphylococcus aureus. Nature of the series: Antibacterial activity against methicillin-resistant Staphylococcus aureus ATCC 43300 assessed as reduction in bacterial growth in presence of Fe3+. The format is functional.
Series [10] relates to Staphylococcus aureus. Briefly: Antibacterial activity against methicillin-resistant Staphylococcus aureus CGMCC 1.12409 assessed as reduction in bacterial growth in presence of Na+. The series is classed as functional.
Series [11] relates to Staphylococcus aureus. Briefly: Antibacterial activity against methicillin-resistant Staphylococcus aureus CGMCC 1.12409 assessed as reduction in bacterial growth in presence of Fe3+. The format is functional.
Series [12] has as its system Staphylococcus aureus. Briefly: Antibacterial activity against methicillin-resistant Staphylococcus aureus ATCC 33591 assessed as reduction in bacterial growth in presence of Fe3+. The format is functional.
Series [13] has as its system Staphylococcus aureus. Briefly: Antibiofilm activity against Staphylococcus aureus CGMCC1.8721 assessed as biofilm eradication. The format is functional, organism-based.
Series [14] relates to Staphylococcus aureus. Nature of the series: Antibiofilm activity against Staphylococcus aureus CGMCC1.8721 assessed as inhibition of biofilm formation at 8 times MIC. The series is classed as functional.
Series [15] relates to Cell membrane. Nature of the series: Induction of membrane depolarization in Staphylococcus aureus CGMCC1.8721 assessed as increase in fluorescence intensity measured upto 30 mins by DiSC35 dye-based fluorescence assay. The format is subcellular. The conditions noted are these: dose 2-8 µg/ml.
Series [16] deals with Staphylococcus aureus. Nature of the series: Antibacterial activity against Staphylococcus aureus CGMCC1.8721 assessed as reduction in bacterial growth in presence of phosphatidylethanolamine. The series is classed as functional, organism-based.
Series [17] deals with Staphylococcus aureus. Briefly: Antibacterial activity against Staphylococcus aureus CGMCC1.8721 assessed as reduction in bacterial growth in presence of phosphatidylcholine. The format is functional, organism-based.
Series [18] has as its system Staphylococcus aureus. Briefly: Antibacterial activity against Staphylococcus aureus CGMCC1.8721 assessed as reduction in bacterial growth in presence of peptidoglycan. The format is functional, organism-based.
Series [19] relates to Cell membrane. Nature of the series: Disruption of cell membrane integrity in Staphylococcus aureus CGMCC1.8721 assessed as appearance of uneven cell surface at 1 to 4 times MIC by scanning electron microscopic analysis. The format is subcellular.
For series [20], the system named is Cell membrane. Briefly: Disruption of cell membrane integrity in Staphylococcus aureus CGMCC1.8721 assessed as appearance of ruptured cell surface at 1 to 4 times MIC by scanning electron microscopic analysis. The series is classed as subcellular.
For series [21], the system named is Staphylococcus aureus. Briefly: Antibacterial activity against Methicillin-resistant Staphylococcus aureus CGMCC1.8721 infected in mouse skin infection model assessed as reduction in bacterial clones at 5 to 10 mg/kg, sc. The format is functional, organism-based. As to conditions: dose 5-10 mg/kg.

Converted amounts (≈) assume the structure as drawn. The source made the active and inactive calls.

A word on the MBC: it is the smallest concentration meeting the test's criterion for killing. As a reminder, the HC50 is the concentration giving 50% haemolysis. One may read the MIC as the smallest concentration in the dilution series that meets the test's criterion for growth inhibition. Take `CCNCc1ccc2[nH]cc(C[C@@H](C)[C@H]3CC[C@H]4[C@@H]5CC[C@@H]6C[C@H](O)CC[C@]6(C)[C@H]5CC[C@]34C)c2c1`: the values for the MBC with Staphylococcus aureus [1], with Staphylococcus aureus [2] and in the series on Staphylococcus aureus [3] were 2 µg/mL (≈ 4.08 µM), 4 µg/mL (≈ 8.15 µM) and 4 µg/mL (≈ 8.15 µM), respectively. The Activity with A549 was >70%; in the series on HepG2, >70%; in the series on Cell membrane [15], “Dose-dependent-effect”. Also, the HC50 in series [4] was > 128 µg/mL. For the same compound, the result with Staphylococcus aureus [5], with Staphylococcus aureus [13], in the series with Cell membrane [19] and in the series on Cell membrane [20] was Active. Also, the MIC with Staphylococcus aureus [6] is 1 µg/mL; in the series with Staphylococcus aureus [7], 1 µg/mL; with Staphylococcus aureus [8], 1 µg/mL; in the series with Staphylococcus aureus [9], 1 µg/mL; with Staphylococcus aureus [10], 2 µg/mL; in the series with Staphylococcus aureus [11], 2 µg/mL. For the same compound, the MIC in the series with Staphylococcus aureus [12] amounted to 2 µg/mL. In addition, the “inhibition (INH)” value with Staphylococcus aureus [14] is 92.4%. Also, the result in the series on Staphylococcus aureus [16], in the series on Staphylococcus aureus [17] and in the series with Staphylococcus aureus [18] was inactive. Also, the AC30 entry with Staphylococcus aureus [21] was “Active”.
